ChEMBL document CHEMBL1687731, “Reverse transcriptase inhibitors as potential colorectal microbicides” (Antimicrob Agents Chemother, 2009)
Active and inactive are the calls of the source. No cut-off for these calls is given here.

Assays:
[1] = test system: Human immunodeficiency virus 1; test: Antiviral activity against R5 tropic HIV1 YU.2 infected in human PBMC assessed as inhibition of p24 antigen production after 2 hrs by ELISA; type: functional, organism-based; conditions: Human immunodeficiency virus 1, YU.2, 2 h
[2] = test system: PBMC; test: Cytotoxicity against human PBMC by MTT assay; type: cell-based
[3] = Cytotoxicity against human TZM-bl cells by MTT assay; type: cell-based
[4] = test system: Human immunodeficiency virus 1; test: Antiviral activity against R5 tropic HIV1 BaL infected in human TZM-b1 cells after 2 hrs by luciferase assay; type: functional, organism-based; conditions: Human immunodeficiency virus 1, BaL, TZM-b1, 2 h
[5] = test system: Human immunodeficiency virus 1; test: Antiviral activity against R5 tropic HIV1 YU.2 infected in human TZM-b1 cells after 2 hrs by luciferase assay; type: functional, organism-based; conditions: Human immunodeficiency virus 1, YU.2, TZM-b1, 2 h
[6] = test system: Human immunodeficiency virus 1; test: Antiviral activity against HIV1 A17 harboring reverse transcriptase K103N, Y181C mutant infected in human TZM-b1 cells after 2 hrs by luciferase assays; type: functional, organism-based
[7] = test system: Human immunodeficiency virus 1; test: Antiviral activity against X4 tropic HIV1 RF infected in human PBMC assessed as inhibition of p24 antigen production after 2 hrs by ELISA; type: functional, organism-based; conditions: Human immunodeficiency virus 1, RF
[8] = test system: Human immunodeficiency virus 1; test: Antiviral activity against X4 tropic HIV1 NL4.3 infected in human TZM-b1 cells after 2 hrs by luciferase assay; type: functional, organism-based; conditions: Human immunodeficiency virus 1, NL4.3, TZM-b1, 2 h
[9] = test system: Human immunodeficiency virus 1; test: Antiviral activity against R5 tropic HIV1 R8.BaL infected in human TZM-b1 cells after 2 hrs by luciferase assay; type: functional, organism-based; conditions: Human immunodeficiency virus 1, R8.BaL, TZM-b1, 2 h
[10] = test system: Human immunodeficiency virus 1; test: Antiviral activity against HIV1 isolate 71361-1 harboring reverse transcriptase K65R mutant infected in human TZM-b1 cells after 2 hrs by luciferase assays; type: functional, organism-based
[11] = test system: Human immunodeficiency virus 1; test: Ratio of IC50 for wild type HIV1 to IC50 for HIV1 A17 harboring reverse transcriptase K103N, Y181C mutant; type: functional
[12] = test system: Human immunodeficiency virus 1; test: Antiviral activity against X4 tropic HIV1 3B infected in human TZM-b1 cells after 2 hrs by luciferase assay; type: functional, organism-based; conditions: Human immunodeficiency virus 1, 3B, TZM-b1, 2 h
[13] = test system: Human immunodeficiency virus 1; test: Antiviral activity against X4 tropic HIV1 NL4.3 infected in human PBMC assessed as inhibition of p24 antigen production after 2 hrs by ELISA; type: functional, organism-based; conditions: Human immunodeficiency virus 1, NL4.3, 2 h
[14] = test system: Human immunodeficiency virus 1; test: Antiviral activity against X4 tropic HIV1 RF infected in human TZM-b1 cells after 2 hrs by luciferase assay; type: functional, organism-based; conditions: Human immunodeficiency virus 1, RF, TZM-b1, 2 h
[15] = test system: Human immunodeficiency virus 1; test: Antiviral activity against R5 tropic HIV1 R8.BaL infected in human PBMC assessed as inhibition of p24 antigen production after 2 hrs by ELISA; type: functional, organism-based; conditions: Human immunodeficiency virus 1, R8.BaL
[16] = test system: Human immunodeficiency virus 1; test: Antiviral activity against HIV1 isolate 8415-2 harboring reverse transcriptase K65R mutant co-expressing M184V mutant infected in human TZM-b1 cells after 2 hrs by luciferase assays; type: functional, organism-based; conditions: Human immunodeficiency virus 1, isolate 8415-2, TZM-b1, 2 h

## Cc1cc(C)c(Nc2ccnc(Nc3ccc(C#N)cc3)n2)c(C)c1 [DAPIVIRINE]
[1]
  IC50: 1.11 nM
[2]
  Activity: Non-toxic
[3]
  Activity: Non-toxic
[4]
  IC50: 0.8 nM
[5]
  IC50: 0.15 nM
[6]; Human immunodeficiency virus 1, A17, TZM-b1, 2 h
  IC50: 8.34 nM
[7]
  IC50: 1.48 nM
[8]
  IC50: 0.37 nM
[9]
  IC50: 0.19 nM
[10]
  Activity: inactive
[11]
  Ratio IC50: 17
[12]
  IC50: 0.53 nM
[13]
  IC50: 1.15 nM
[14]
  IC50: 0.84 nM
[15]
  IC50: 1.09 nM

## C[C@H](Cn1cnc2c(N)ncnc21)OCP(=O)(O)O [TENOFOVIR ANHYDROUS]
[16]
  IC50: 820 nM
[1]
  IC50: 884 nM
[2]
  Activity: Non-toxic
[3]
  Activity: Non-toxic
[4]
  IC50: 2520 nM
[5]
  IC50: 3340 nM
[7]
  IC50: 1600 nM
[8]
  IC50: 6690 nM
[9]
  IC50: 4590 nM
[10]; Human immunodeficiency virus 1, isolate 71361-1, TZM-b1, 2 h
  IC50: > 30000 nM
[12]
  IC50: 2300 nM
[13]
  IC50: 1400 nM
[14]
  IC50: 4030 nM
[15]
  IC50: 1010 nM

## CC(C)=CCOc1cc(NC(=S)c2ccoc2C)ccc1Cl [UC 781]
[1]
  IC50: 11.2 nM
[2]
  Activity: Non-toxic
[3]
  Activity: Non-toxic
[4]
  IC50: 9.34 nM
[5]
  IC50: 5.87 nM
[6]
  Activity: inactive
[7]
  IC50: 9.2 nM
[8]
  IC50: 10.2 nM
[9]
  IC50: 5.86 nM
[12]
  IC50: 7.99 nM
[13]
  IC50: 17.6 nM
[14]
  IC50: 6.01 nM
[15]
  IC50: 10.2 nM
